Assay results reported in article PMC8944975, “Secretin Receptor as a Target in Gastrointestinal Cancer: Expression Analysis and Ligand Development” (Biomedicines, 2022).
Where two headings read alike, the source gives them in different places.

Molecular target: human SCTR (Homo sapiens, UniProt P47872)
Test: agonist-induced β-arr2-GFP translocation
Format: cell-based
Design: expressed in transfected cells; host or cells: U2OS (human osteosarcoma), stably co-transfected with β-arrestin2-GFP
Conditions: for β-arrestin2-GFP agonism efficacy: % of wild-type secretin; for EC50: mean of at least three independent experiments in duplicates
Excerpt: U2OS-SCTR/β-arr2-GFP: human osteosarcoma cell line U2OS (purchased from ATCC/LGC Standards, Wesel, Germany) were stably transfected with plasmids encoding SCTR (Homo sapiens) and the fusion protein β-arrestin2-green fluorescent protein (GFP) (Rattus norvegicus-Aequorea victoria) (β-arr2-GFP).
To evaluate reactivity of human SCTR exposed to different ligand variants, intracellular translocation of a fusion protein of β-arrestin2 and green fluorescent protein was utilized. For evaluation of activation, receptor-mediated recruitment of cytoplasmic β-arr2-GFP was monitored through its translocation into condensed intracellular vesicles. The extent of translocation events was quantified by determining the increasing granularization of the intracellular fluorescence utilizing an automated high-throughput microscope in combination with computational algorithms to estimate potency (EC50) and efficacy, thus characterizing ligand-SCTR interaction. U2OS-SCTR/β-arr2-GFP cells were seeded in 96-well cell culture plates to 60–80% confluence. On the following day, preceding stimulation, cells were incubated for one hour in serum-free medium. Ligand variants were applied as serial dilutions in assay buffer C1. After preincubation, supernatant was discarded by tapping plates overhead repeatedly. For stimulation, 50 µL of ligand dilution was applied per well in duplicates and incubated for 20 min at 37 °C. Successively, cells were fixed by applying 4% buffered formaldehyde (Herbeta Arzneimittel, Berlin, Germany) for 10 min at room temperature and consecutively permeabilized for 10 min at room temperature with 0.1% TritonX-100 in PBS, containing DAPI (4′,6-Diamidin-2-phenylindol, SigmaAldrich, Deisenhofen, Germany, 1 µg/mL) to counterstain nuclei. Microscopic images were recorded by an IN Cell Analyzer 1000 (GE Healthcare, Reading, UK) with 20× magnification at 5 frames per well in a 96-well format. Image processing was performed with IN Cell Investigator software (GE Healthcare, Reading, UK), applying the provided granularity algorithm. The output of the analysis was indicated as vesicle area/cell and was utilized for calculation of concentration–response curves. Parameters derived from curve fitting included the concentration of half-maximal activity (EC50), and intrinsic activity. Intrinsic activity was normalized defining reaction to non-modified wild type secretin as the 100% curve maximum value.

[1] = Supplementary Tables S1 and S2, decimal comma, '-' not detectable (Figure 4)
[2] = Supplementary Tables S1 and S2, U2OS-SCTR/β-arr2-GFP cells, 20 min at 37 °C, decimal comma, '-' not detectable (Figure 4), read-out: β-arrestin2-GFP agonism potency

Chain of human SCTR (P47872 23-440): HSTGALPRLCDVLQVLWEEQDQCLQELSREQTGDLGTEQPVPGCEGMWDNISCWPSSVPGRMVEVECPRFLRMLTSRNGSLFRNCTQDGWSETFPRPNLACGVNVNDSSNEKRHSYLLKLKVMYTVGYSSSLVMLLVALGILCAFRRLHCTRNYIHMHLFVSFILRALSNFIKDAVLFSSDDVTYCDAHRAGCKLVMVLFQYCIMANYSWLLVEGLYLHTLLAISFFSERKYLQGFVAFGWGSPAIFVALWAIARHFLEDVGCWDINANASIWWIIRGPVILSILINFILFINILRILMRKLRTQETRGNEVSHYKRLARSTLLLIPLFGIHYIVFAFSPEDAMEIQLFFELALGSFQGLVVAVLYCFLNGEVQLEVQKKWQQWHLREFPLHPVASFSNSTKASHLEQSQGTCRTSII

β-arrestin2-GFP agonism efficacy [1]	EC50 [2]	Compound	other results
94,17 % Sec		CC(C)C[C@H](NC(=O)CNC(=O)[C@H](CCC(N)=O)NC(=O)[C@H](CC(C)C)NC(=O)[C@H](CC(C)C)NC(=O)[C@H](CCCNC(=N)N)NC(=O)[C@H](CCC(N)=O)NC(=O)[C@H](CC(C)C)NC(=O)[C@H](CCCNC(=N)N)NC(=O)[C@H](C)NC(=O)CNC(=O)[C@H](CCC(=O)O)NC(=O)[C@H](CCCNC(=N)N)NC(=O)[C@H](CC(C)C)NC(=O)[C@H](CCCNC(=N)N)NC(=O)[C@H](CO)NC(=O)[C@@H](CC(C)C)NC(=O)[C@H](CCC(=O)O)NC(=O)[C@H](CO)NC(=O)[C@@H](NC(=O)[C@H](Cc1ccccc1)NC(=O)[C@@H](NC(=O)CNC(=O)[C@H](CC(=O)O)NC(=O)[C@H](CO)NC(=O)[C@@H](N)Cc1c[nH]cn1)[C@@H](C)O)[C@@H](C)O)C(=O)N[C@H](C(=O)O)C(C)C [Peptide 94]	
95,03 % Sec	72.6 nM	CC(C)C[C@H](NC(=O)[C@H](CCCNC(=N)N)NC(=O)[C@H](C)NC(=O)CNC(=O)[C@H](CCC(=O)O)NC(=O)[C@H](CCCNC(=N)N)NC(=O)[C@H](CC(C)C)NC(=O)[C@H](CCCNC(=N)N)NC(=O)[C@H](CO)NC(=O)[C@H](CC(C)C)NC(=O)[C@H](CCC(=O)O)NC(=O)[C@H](CO)NC(=O)[C@@H](NC(=O)[C@H](Cc1ccccc1)NC(=O)[C@@H](NC(=O)CNC(=O)[C@H](CC(=O)O)NC(=O)[C@H](CO)NC(=O)[C@@H](N)Cc1c[nH]cn1)[C@@H](C)O)[C@@H](C)O)C(=O)N[C@@H](CCC(N)=O)C(=O)N[C@@H](CCCNC(=N)N)C(=O)N[C@@H](CC(C)C)C(=O)N[C@@H](CC(C)C)C(=O)N[C@@H](CCC(N)=O)C(=O)NCC(=O)N1CCC[C@H]1C(=O)N[C@H](C(=O)O)C(C)C [Peptide 84]	
91,57 % Sec		CC(C)C[C@H](NC(=O)CNC(=O)[C@H](CCC(N)=O)NC(=O)[C@H](CC(C)C)NC(=O)[C@H](CC(C)C)NC(=O)[C@H](CCCNC(=N)N)NC(=O)[C@H](CCC(N)=O)NC(=O)[C@H](CC(C)C)NC(=O)[C@H](CCCNC(=N)N)NC(=O)[C@H](C)NC(=O)CNC(=O)[C@H](CCC(=O)O)NC(=O)[C@H](CCCNC(=N)N)NC(=O)[C@H](CC(C)C)NC(=O)[C@H](CCCNC(=N)N)NC(=O)[C@H](CO)NC(=O)[C@H](CC(C)C)NC(=O)[C@H](CCC(=O)O)NC(=O)[C@H](CO)NC(=O)[C@@H](NC(=O)[C@H](Cc1ccccc1)NC(=O)[C@@H](NC(=O)CNC(=O)[C@H](CC(=O)O)NC(=O)[C@@H](CO)NC(=O)[C@@H](N)Cc1c[nH]cn1)[C@@H](C)O)[C@@H](C)O)C(=O)N[C@H](C(=O)O)C(C)C [Peptide 87]	
		CC(C)C[C@H](NC(=O)CNC(=O)[C@H](CCC(N)=O)NC(=O)[C@H](CC(C)C)NC(=O)[C@H](CC(C)C)NC(=O)[C@H](CCCNC(=N)N)NC(=O)[C@H](CCC(N)=O)NC(=O)[C@H](CC(C)C)NC(=O)[C@H](CCCNC(=N)N)NC(=O)[C@H](C)NC(=O)CNC(=O)[C@H](CCC(=O)O)NC(=O)[C@H](CCCNC(=N)N)NC(=O)[C@H](CC(C)C)NC(=O)[C@H](CCCNC(=N)N)NC(=O)[C@H](CO)NC(=O)[C@H](CC(C)C)NC(=O)[C@H](CCC(=O)O)NC(=O)[C@H](CO)NC(=O)[C@@H](NC(=O)[C@H](C)NC(=O)[C@@H](NC(=O)CNC(=O)[C@H](CC(=O)O)NC(=O)[C@H](CO)NC(=O)[C@@H](N)Cc1c[nH]cn1)[C@@H](C)O)[C@@H](C)O)C(=O)N[C@H](C(=O)O)C(C)C [Peptide 7]	EC50 (U2OS-SCTR/β-arr2-GFP cells, ligand 20 min at 37 °C, vesicle area/cell by automated microscopy, read-out: EC50, β-arr2-GFP translocation assay): 155 ± 30.8 nM; Emax (U2OS-SCTR/β-arr2-GFP cells, normalized to wild type secretin = 100% curve maximum, read-out: intrinsic activity (efficacy), β-arr2-GFP translocation assay): 61.8 ± 4.9%
		GLP-2: structurally related glucagon-like peptide 2 [reference compound]	SCTR activation (agonism) in the β-arr2-GFP translocation assay, in words (U2OS-SCTR/β-arr2-GFP cells): no SCTR activation
89,07 % Sec		CC(C)C[C@H](NC(=O)CNC(=O)[C@H](CCC(N)=O)NC(=O)[C@H](CC(C)C)NC(=O)[C@H](CC(C)C)NC(=O)[C@H](CCCNC(=N)N)NC(=O)[C@H](CCC(N)=O)NC(=O)[C@H](CC(C)C)NC(=O)[C@H](CCCNC(=N)N)NC(=O)[C@H](C)NC(=O)CNC(=O)[C@H](CCC(=O)O)NC(=O)[C@H](CCCNC(=N)N)NC(=O)[C@H](CC(C)C)NC(=O)[C@H](CCCNC(=N)N)NC(=O)[C@H](CO)NC(=O)[C@H](CC(C)C)NC(=O)[C@H](CCC(=O)O)NC(=O)[C@H](CO)NC(=O)[C@@H](NC(=O)[C@H](Cc1ccccc1)NC(=O)[C@@H](NC(=O)CNC(=O)[C@@H](CC(=O)O)NC(=O)[C@H](CO)NC(=O)[C@@H](N)Cc1c[nH]cn1)[C@@H](C)O)[C@@H](C)O)C(=O)N[C@H](C(=O)O)C(C)C [Peptide 88]	
103,17 % Sec	22.1 nM	CC(C)C[C@H](NC(=O)[C@H](CCCNC(=N)N)NC(=O)[C@H](C)NC(=O)CNC(=O)[C@H](CCC(=O)O)NC(=O)[C@H](CCCNC(=N)N)NC(=O)[C@H](CC(C)C)NC(=O)[C@H](CCCNC(=N)N)NC(=O)[C@H](CO)NC(=O)[C@H](CC(C)C)NC(=O)[C@H](CCC(=O)O)NC(=O)[C@H](CO)NC(=O)[C@@H](NC(=O)[C@H](Cc1ccccc1)NC(=O)[C@@H](NC(=O)CNC(=O)[C@H](CC(=O)O)NC(=O)[C@H](CO)NC(=O)[C@@H](N)Cc1c[nH]cn1)[C@@H](C)O)[C@@H](C)O)C(=O)N[C@@H](CCC(N)=O)C(=O)N[C@@H](CCCNC(=N)N)C(=O)N[C@@H](CC(C)C)C(=O)N[C@@H](CC(C)C)C(=O)N[C@@H](CCC(N)=O)C(=O)N1CCC[C@H]1C(=O)N[C@@H](CC(C)C)C(=O)N[C@H](C(=O)O)C(C)C [Peptide 83]	
100,73 % Sec	2.28 nM	CC(C)C[C@H](NC(=O)CNC(=O)[C@H](CCC(N)=O)NC(=O)[C@H](CC(C)C)NC(=O)[C@H](CC(C)C)NC(=O)[C@H](CCCNC(=N)N)NC(=O)[C@H](CCC(=O)O)NC(=O)[C@H](CC(C)C)NC(=O)[C@H](CCCNC(=N)N)NC(=O)[C@H](C)NC(=O)CNC(=O)[C@H](CCC(=O)O)NC(=O)[C@H](CCCNC(=N)N)NC(=O)[C@H](CC(C)C)NC(=O)[C@H](CCCNC(=N)N)NC(=O)[C@H](CO)NC(=O)[C@H](CC(C)C)NC(=O)[C@H](CCC(=O)O)NC(=O)[C@H](CO)NC(=O)[C@@H](NC(=O)[C@H](Cc1ccccc1)NC(=O)[C@@H](NC(=O)CNC(=O)[C@H](CC(=O)O)NC(=O)[C@H](CO)NC(=O)[C@@H](N)Cc1c[nH]cn1)[C@@H](C)O)[C@@H](C)O)C(=O)N[C@H](C(=O)O)C(C)C [Peptide 71]	
114,30 % Sec	9.53 nM	CC(C)C[C@H](NC(=O)CNC(=O)[C@H](CCC(N)=O)NC(=O)[C@H](CC(C)C)NC(=O)[C@H](CC(C)C)NC(=O)[C@H](CCCNC(=N)N)NC(=O)[C@H](CCC(N)=O)NC(=O)[C@H](CC(C)C)NC(=O)[C@H](CCCNC(=N)N)NC(=O)[C@H](C)NC(=O)CNC(=O)[C@H](CCC(=O)O)NC(=O)[C@H](CCCCN)NC(=O)[C@H](CC(C)C)NC(=O)[C@H](CCCNC(=N)N)NC(=O)[C@H](CO)NC(=O)[C@H](CC(C)C)NC(=O)[C@H](CCC(=O)O)NC(=O)[C@H](CO)NC(=O)[C@@H](NC(=O)[C@H](Cc1ccccc1)NC(=O)[C@@H](NC(=O)CNC(=O)[C@H](CC(=O)O)NC(=O)[C@H](CO)NC(=O)[C@@H](N)Cc1c[nH]cn1)[C@@H](C)O)[C@@H](C)O)C(=O)N[C@H](C(=O)O)C(C)C [Peptide 68]	
100,47 % Sec	5.19 nM	CC(C)C[C@H](NC(=O)[C@H](CCCNC(=N)N)NC(=O)[C@H](C)NC(=O)CNC(=O)[C@H](CCC(=O)O)NC(=O)[C@H](CCCNC(=N)N)NC(=O)[C@H](CC(C)C)NC(=O)[C@H](CCCNC(=N)N)NC(=O)[C@H](CO)NC(=O)[C@H](CC(C)C)NC(=O)[C@H](CCC(=O)O)NC(=O)[C@H](CO)NC(=O)[C@@H](NC(=O)[C@H](Cc1ccccc1)NC(=O)[C@@H](NC(=O)CNC(=O)[C@H](CC(=O)O)NC(=O)[C@H](CO)NC(=O)[C@@H](N)Cc1c[nH]cn1)[C@@H](C)O)[C@@H](C)O)C(=O)N[C@@H](CCC(N)=O)C(=O)N[C@@H](CCCNC(=N)N)C(=O)N[C@@H](CC(C)C)C(=O)N[C@@H](CC(C)C)C(=O)N[C@@H](CCC(N)=O)C(=O)NCC(=O)N[C@@H](CC(C)C)C(=O)N1CCC[C@H]1C(=O)O [Peptide 85]	
